Each structure is given as a SMILES string.

This test has as its system HSV-1. The experiment in a line: HSV infection of Vero 76 cells, viral DNA detected by hybridization capture with chemiluminescence. The format is cell-based. The following applies: Human alphaherpesvirus 1; HSV-1 in Vero 76 cells, MOI=0.001, incubated 40–48 hours with test compound. How it is done: Vero 76 cells were maintained in MEM with Earle's salts, L-glutamine, 8% FBS (Hyclone, A-1111-L) and 100 units/mL Penicillin-100 μg/mL Streptomycin. For assay conditions, FBS was reduced to 2%. Cells are seeded into 96-well tissue culture plates at a density of 5×10^4 cells/well after being incubated for 45 min at 37° C. in the presence of HSV-1 or HSV-2 (MOI=0.001). Test compounds are added to the wells and the plates are incubated at 37° C. for 40–48 hours. Cell lysates are prepared as follows: media was removed and replaced with 150 μL/well 0.2 N NaOH with 1% Igepal CA 630 or NP-40. Plates were incubated up to 14 days at room temperature in a humidified chamber to prevent evaporation.
For the detection probe, a gel-purified, digoxigenin-labeled, 710-bp PCR fragment of the HSV UL-15 sequence was utilized. PCR conditions included 0.5 μM primers, 180 μM dTTP, 20 μM dUTP-digoxigenin (Boehringer Mannheim 1558706), 200 μM each of dATP, dCTP, and dGTP, 1×PCR Buffer II (Perkin Elmer), 2.5 mM MgCl2, 0.025 units/μL of AmpliTaq Gold polymerase (Perkin Elmer), and 5 ng of gel-purified HSV DNA per 100 μL Extension conditions were 10 min at 95° C., followed by 30 cycles of 95° C. for 1 min, 55° C. for 30 sec, and 72° C. for 2 min. The amplification was completed with a 10-min incubation at 72° C. Primers were selected to amplify a 728 bp probe spanning a section of the HSV1 UL15 open reading frame (nucleotides 249–977). Single-stranded transcripts were purified with Promega M13 Wizard kits. The final product was mixed 1:1 with a mixture of 6 M GuSCN, 100 mM EDTA and 200 μg/mL herring sperm DNA and stored at 4° C.
The capture DNA plasmid (HSV UL13 region in pUC) was linearized by cutting with XbaI, denatured for 15 min at 95° C. and diluted immediately into Reacti-Bind DNA Coating Solution (Pierce, 17250, diluted 1:1 with TE buffer, pH 8) at 1 ng/μL 75 μL/well were added to Corning (#3922 or 9690) white 96-well plates and incubated at room temperature for at least 4 hrs before washing twice with 300 μL/well 0.2×SSC/0.05% Tween-20 (SSC/T buffer). The plates were then incubated overnight at room temperature with 150 μL/well 0.2 N NaOH, 1% IGEPAL and 10 μg/mL herring sperm DNA.
Twenty-seven (27) μL of cell lysate was combined with 45 μL of hybridization solution (final concentration: 3M GuSCN, 50 mM EDTA, 100 μg/ml salmon sperm DNA, 5×Denhardt's solution, 0.25×APE, and 5 ng of the digoxigenin-labeled detection probe). APE is 1.5 M NH4-acetate, 0.15 M ammonium phosphate monobasic, and 5 mM EDTA adjusted to pH 6.0. Mineral oil (50 μL) was added to prevent evaporation. The hybridization plates were incubated at 95° C. for 10 minutes to denature the DNA, then incubated at 42° C. overnight. The wells were washed 6× with 300 μL/well SSC/T buffer then incubated with 75 μL/well anti-digoxigenin-HRP-conjugated antibody (Boehringer Mannheim 1207733, 1:5000 in TE) for 30 min at room temperature. The wells were washed 6× with 300 μL/well with PBS/0.05% Tween-20 before 75 μL/well SuperSignal LBA substrate (Pierce) was added. The plates were incubated at room temperature for 30 minutes and chemiluminescence was measured in a Wallac Victor reader.
Consider `N#Cc1ccc(-c2nc3c(N4CCOCC4)cccn3c2-c2ccnc(NC3CCCC3)n2)cc1` [Example 27, 4-[3-[2-(Cyclopentylamino)-4-pyrimidinyl]-8-(4-morpholinyl)-imidazo[1,2-α]pyridin-2-yl]benzonitrile], for which the half-maximal inhibitory concentration (IC50) (as a rule, the midpoint of a concentration-inhibition curve) came to 200 nM. The value for `Cc1ccc(-c2nc3c(N4CCOCC4)cccn3c2-c2ccnc(NC3CCCC3)n2)cc1` [Example 22, N-Cyclopentyl-4-[2-(4-methylphenyl)-8-(4-morpholinyl)imidazo[1,2-α]pyridin-3-yl]-2-pyrimidinamine] was 840 nM; that for `Oc1cccn2c(-c3ccnc(NC4CCCC4)n3)c(-c3ccc(F)cc3)nc12` [Example 58] was 200 nM.

Take `Fc1ccc(-c2nc3c(NC4CCCC4)cc(Br)cn3c2-c2ccnc(NC3CCCC3)n2)cc1` [Example 41, N-{4-[6-Bromo-8-(cyclopentylamino)-2-(4-fluorophenyl)imidazo[1,2-a]pyridin-3-yl]-2-pyrimidinyl}-N-cyclopentylamine]: the 50% inhibitory concentration (IC50) amounted to 180 nM.

Compound `N#Cc1ccc(-c2nc3c(Cl)cccn3c2-c2ccnc(NC3CCCC3)n2)cc1` [Example 25, 4-{8-Chloro-3-[2-(cyclopentylamino)-4-pyrimidinyl]imidazo[1,2-α]pyridin-2-yl}benzonitrile] gave an IC50 of 300 nM. The value for `Fc1ccc(-c2nc3c(Cl)cc(Cl)cn3c2-c2ccnc(NC3CCCC3)n2)cc1` [Example 38, N-Cyclopentyl-4-[6,8-dichloro-2-(4-fluorophenyl)imidazo[1,2-α]pyridin-3-yl]-2-pyrimidinamine] was 950 nM. The value for `Fc1ccc(-c2nc3ccc(N4CCOCC4)cn3c2-c2ccnc(NC3CCCC3)n2)cc1` [Example 50, N-Cyclopentyl-4-[2-(4-fluorophenyl)-6-(4-morpholinyl)imidazo[1,2-a]pyridin-3-yl]-2-pyrimidinamine] was 180 nM.

The compound `c1cc(NC2CCCC2)c2nc(-c3ccc(OCC4CC4)cc3)c(-c3ccnc(NC4CCCC4)n3)n2c1` [Example 53, N-Cyclopentyl-3-[2-(cyclopentylamino)-4-pyrimidinyl]-2-[4-(cyclopropylmethoxy)phenyl]imidazo[1,2-a]pyridin-8-amine] came in with an IC50 of 200 nM.

With `Fc1ccc(-c2nc3c(NC4CCCC4)cc(C(F)(F)F)cn3c2-c2ccnc(NC3CCCC3)n2)cc1` [Example 54, N-Cyclopentyl-3-[2-(cyclopentylamino)-4-pyrimidinyl]-2-(4-fluorophenyl)-6-(trifluoromethyl)imidazo[1,2-a]pyridin-8-amine], it took 840 nM to reach half-maximal inhibition (IC50). In turn, `COc1ccc(-c2nc3c(Cl)cccn3c2-c2ccnc(NC3CCCC3)n2)cc1` [Example 9, 4-[8-Chloro-2-(4-methoxyphenyl)imidazo[1,2-α]pyridin-3-yl]-N-cyclopentyl-2-pyrimidinamine] returned an IC50 of 1200 nM.

Take `COc1cccc(-c2nc3c(NC4CCCC4)cccn3c2-c2ccnc(NC3CCCC3)n2)c1` [Example 16, N-Cyclopentyl-3-[2-(cyclopentylamino)-4-pyrimidinyl]-2-(3-methoxyphenyl)imidazo[1,2-α]pyridin-8-amine]: the IC50 stood at 370 nM.

With `Cc1ccc(-c2nc3c(Cl)cccn3c2-c2ccnc(NC3CCCC3)n2)cc1` [Example 19, 4-[8-Chloro-2-(4-methylphenyl)imidazo[1,2-α]pyridin-3-yl]-N-cyclopentyl-2-pyrimidinamine], half-maximal inhibition (IC50) was put at 3740 nM. As to `CCCCNc1cccn2c(-c3ccnc(NC4CCCC4)n3)c(-c3cccc(N=[N+]=[N-])c3)nc12` [Example 56, 2-(3-Azidophenyl)-N-butyl-3-[2-(cyclopentylamino)pyrimidin-4-yl]imidazo[1,2-a]pyridin-8-amine], the IC50 is 2900 nM. The value for `Oc1cccc(-c2nc3c(NC4CCCC4)cccn3c2-c2ccnc(NC3CCCC3)n2)c1` [Example 17, 3-{8-(Cyclopentylamino)-3-[2-(cyclopentylamino)-4-pyrimidinyl]imidazo[1,2-α]pyridin-2-yl}phenol] was 3100 nM; that for `Clc1cccn2c(-c3ccnc(NC4CC4)n3)c(-c3ccc4ccccc4c3)nc12` [Example 23, 4-[8-Chloro-2-(2-naphthyl)imidazo[1,2-α]pyridin-3-yl]-N-cyclopropyl-2-pyrimidinamine] was 210 nM; that for `C=CCOc1cccc(-c2nc3c(NC4CCCC4)cccn3c2-c2ccnc(NC3CCCC3)n2)c1` [Example 18, 2-[3-(Allyloxy)phenyl]-N-cyclopentyl-3-[2-(cyclopentylamino)-4-pyrimidinyl]imidazo[1,2-α]pyridin-8-amine] was 340 nM.

Consider `Fc1ccc(-c2nc3c(N4CCOCC4)cc(N4CCOCC4)cn3c2-c2ccnc(NC3CCCC3)n2)cc1` [Example 43, N-Cyclopentyl-4-[2-(4-fluorophenyl)-6,8-di(4-morpholinyl)imidazo[1,2-a]pyridin-3-yl]-2-pyrimidinamine], for which the IC50 was 470 nM. In turn, `Fc1ccc(-c2nc3c(NC4CCCC4)cccn3c2-c2ccnc(NC3CCCC3)n2)cc1` [Example 3, N-Cyclopentyl-3-[2-(cyclopentylamino)-4-pyrimidinyl]-2-(4-fluorophenyl)imidazo[1,2-α]pyridin-8-amine] registered an IC50 of 400 nM.

Compound `Fc1ccc(-c2nc3ccccn3c2-c2ccnc(NC3CCCC3)n2)cc1` [Example 49, N-Cyclopentyl-4-[2-(4-fluorophenyl)imidazo[1,2-a]pyridin-3-yl]-2-pyrimidinamine] yielded an IC50 of 3300 nM. The compound `Fc1ccc(-c2nc3c(OCc4ccccc4)cccn3c2-c2ccnc(NC3CCCC3)n2)cc1` [Example 57, 4-[8-(Benzyloxy)-2-(4-fluorophenyl)imidazo[1,2-a]pyridin-3-yl]-N-cyclopentylpyrimidin-2-amine] had an IC50 of 970 nM. As to `Fc1ccc(-c2nc3ccc(Br)cn3c2-c2ccnc(NC3CCCC3)n2)cc1` [Example 47, N-{4-[6-Bromo-2-(4-fluorophenyl)imidazo[1,2-a]pyridin-3-yl]-2-pyrimidinyl}-N-cyclopentylamine], the IC50 is 4000 nM. On to `Cc1cc(NC2CCCC2)cn2c(-c3ccnc(NC4CCCC4)n3)c(-c3ccc(F)cc3)nc12` [Example 45, N-Cyclopentyl-3-[2-(cyclopentylamino)-4-pyrimidinyl]-2-(4-fluorophenyl)-8-methylimidazo[1,2-a]pyridin-6-amine], for which the IC50 stood at 140 nM. The compound `Nc1cccc(-c2nc3c(Cl)cccn3c2-c2ccnc(NC3CCCC3)n2)c1` [Example 32, 4-[2-(3-Aminophenyl)-8-chloroimidazo[1,2-α]pyridin-3-yl]-N-cyclopentyl-2-pyrimidinamine] returned an IC50 of 3300 nM. `C=CCOc1ccc(-c2nc3c(NC4CCCC4)cccn3c2-c2ccnc(NC3CCCC3)n2)cc1` [Example 52, 2-[4-(Allyloxy)phenyl]-N-cyclopentyl-3-[2-(cyclopentylamino)-4-pyrimidinyl]imidazo[1,2-a]pyridin-8-amine] gave an IC50 of 620 nM.

Turning to `Cc1ccc(-c2nc3c(NC4CCCC4)cccn3c2-c2ccnc(NC3CCCC3)n2)cc1` [Example 20, N-Cyclopentyl-3-[2-(cyclopentylamino)-4-pyrimidinyl]-2-(4-methylphenyl)imidazo[1,2-α]pyridin-8-amine], 710 nM corresponded to half-maximal inhibition (IC50). The value for `O=[N+]([O-])c1cccc(-c2nc3c(N4CCOCC4)cccn3c2-c2ccnc(NC3CCCC3)n2)c1` [Example 31, N-Cyclopentyl-4-[8-(4-morpholinyl)-2-(3-nitrophenyl)imidazo[1,2-α]pyridin-3-yl]-2-pyrimidinamine] was 1200 nM; that for `COc1cccc(-c2nc3c(Cl)cccn3c2-c2ccnc(NC3CCCC3)n2)c1` [Example 15, 4-[8-Chloro-2-(3-methoxyphenyl)imidazo[1,2-α]pyridin-3-yl]-N-cyclopentyl-2-pyrimidinamine] was 2300 nM.
